According to US7199114B2, “Triterpene quaternary salts as biologically active surfactants” (The Regents of the University of Minnesota, priority 2002, dated 2007):

Tests used:
[1] = test system: Enterococcus faecium Vancomycin-sensitive (second listed); experiment: Anti-bacterial activity, broth culture MIC; format: cell-based; settings: Enterococcus faecium, read-out: Approximate Minimum Inhibitory Concentration, MIC
Protocol: (§1) Several uncharged or negatively charged triterpenes, and several positively charged triterpenes of the invention were tested for anti-bacterial activity against antibiotic-susceptible and antibiotic resistant strains of four types of bacteria of concern in clinics and hospitals. The triterpenes weres tested in broth culture in triplicate for ability to inhibit bacterial growth. The compounds tested are those listed below.
(§2) The lowest concentration which inhibits bacterial growth is referred to as the minimum inhibitory concentration (MIC), the standard measurement of anti-microbial activity.

[2] = test system: Staphylococcus aureus Methicillin-sensitive; experiment: Anti-bacterial activity, broth culture MIC; format: cell-based; settings: Staphylococcus aureus, read-out: Approximate Minimum Inhibitory Concentration, MIC
Protocol: as §1, §2

[3] = test system: Staphylococcus aureus Methicillin-resistant; experiment: Anti-bacterial activity, broth culture MIC; format: cell-based; settings: Staphylococcus aureus, read-out: Approximate Minimum Inhibitory Concentration, MIC
Protocol: as §1, §2

[4] = test system: Eschericia coli Ampicillin-resistant; experiment: Anti-bacterial activity, broth culture MIC; format: cell-based; settings: read-out: Approximate Minimum Inhibitory Concentration, MIC
Protocol: as §1, §2

[5] = test system: Enterococcus faecium Vancomycin-sensitive (first listed); experiment: Anti-bacterial activity, broth culture MIC; format: cell-based; settings: Enterococcus faecium, read-out: Approximate Minimum Inhibitory Concentration, MIC
Protocol: as §1, §2

[6] = test system: brown patch, caused by Rhozoctonia sofani; experiment: Antifungal treatment on turf grass plots (Example 84), brown patch; format: in vivo; settings: Table 3 experiment, 17.8 g/1000 sq. ft. (Daconil Ultrex 3.2 oz./1000 sq. ft.)
Protocol: (§3) Plots of creeping bentgrass, cv. “Pennlinks,” were treated with water based sprays of the test compounds. Sprays were delivered by CO2-charged sprayer to deliver the equivalent of 2 gallons of spray per 1000 sq. ft of plot area. Plots were 15 sq. ft. each, and treatments were mixed to apply material to 75 sq. ft (5 replicates), although only 4 replicates were treated. The quaternary salts of triterpenes were applied at 17.8 g/1000 sq. ft. for 14 days. Daconil Ultrex® was applied at 3.2 oz./1000 sq. ft. for 14 days. The experiment used a randomized complete block design, with 4 replicates per treatment. Disease pressure was high. Pennlinks […] is moderately to highly susceptible to both dollar spot and brown patch. For brown patch, caused by Rhozoctonia sofani. a visual estimate of the percent of the plot area affected was recorded. Turf quality was estimated on a 1 to 9 scale, with 1 being worst and 9 being perfect. A rating of 6 is considered acceptable.

[7] = Antifungal treatment on turf grass plots (Example 84), turf quality; format: in vivo, creeping bentgrass, cv. Pennlinks; settings: Table 3 experiment, 1 to 9 scale, 9 perfect, 17.8 g/1000 sq. ft. (Daconil Ultrex 3.2 oz./1000 sq. ft.)
Protocol: as §3

[8] = test system: dollar spot; experiment: Antifungal treatment on turf grass plots (Example 84), dollar spot count; format: in vivo; settings: Table 3 experiment, 17.8 g/1000 sq. ft. (Daconil Ultrex 3.2 oz./1000 sq. ft.)
Protocol: as §3

[9] = test system: Escherichia coli Ampicillin sensitive; experiment: Anti-bacterial activity, broth culture MIC; format: cell-based; settings: read-out: Approximate Minimum Inhibitory Concentration, MIC
Protocol: as §1, §2

[10] = test system: Pseudomonas aeruginosa Antibiotic sensitive; experiment: Anti-bacterial activity, broth culture MIC; format: cell-based; settings: read-out: Approximate Minimum Inhibitory Concentration, MIC
Protocol: as §1, §2

[11] = test system: Pseudomonas aeruginosa Multi-drug resistant; experiment: Anti-bacterial activity, broth culture MIC; format: cell-based; settings: read-out: Approximate Minimum Inhibitory Concentration, MIC
Protocol: as §1, §2

[12] = test system: dollar spot; experiment: Bentgrass dollar spot trial at Rutgers University, lesion count; format: in vivo; settings: text summary of Table 7
Protocol: Similar experiments were performed at Rutgers University to test for treatment of bentgrass infected with dollar spot. Test compounds were mixed in aqueous solution with the adjuvant Latron B-1956® (Rohm and Haas) and applied to the grass at a rate of 4.18 fluid ounces per 1000 square feet and an interval of every 7 days. The number of lesions per plot were then counted and averaged over the replicate plots. Treatment with fertilizers or other fungicides were also performed.

[13] = background statement; cited from earlier work

Row | SMILES | MIC [1] [µg/mL] | MIC [2] [µg/mL] | MIC [3] [µg/mL] | MIC [4] [µg/mL] | MIC [5] [µg/mL] | other results
1 | C=C(C)[C@@H]1CCC2(COC(=O)C[n+]3cccc(CNC(N)=O)c3)CC[C@]3(C)C(CCC4[C@@]5(C)CC[C@H](OC(=O)C[n+]6cccc(CNC(N)=O)c6)C(C)(C)C5CC[C@]43C)C12.Cl.Cl (some centres unmarked) |  |  |  |  |  | melting point: 245 to 247 °C (dec.)
2 | Br.C=C(C[n+]1ccc(N(C)C)cc1)[C@@H]1CC[C@]2(COC(C)=O)CC[C@]3(C)C(CCC4[C@@]5(C)CC[C@H](OC(C)=O)C(C)(C)C5CC[C@]43C)C12 (some centres unmarked) [Compound 12, 1-(3,28-(diacetoxy)lup-20(29)-ene-30-yl)4-(dimethylamino)pyridinium bromide] | 2 | 2 | 5 | 50 | 2 | 
3 | C=C(C[N+]12CCN(CC1)CC2)[C@@H]1CC[C@]2(COC(C)=O)CC[C@]3(C)C(CCC4[C@@]5(C)CC[C@H](OC(C)=O)C(C)(C)C5CC[C@]43C)C12.[Br-] (some centres unmarked) [Compound 18, 1-[3,28-(diacetoxy)lup-20(29)-ene-30-yl]-1,4-diazabicyclo[2.2.2]octane bromide] | 5 | 5 | 5 |  | 5 | Brown Patch % of plot infected ([6]; Jul. 2, 2001): 37.5%; Brown Patch % of plot infected ([6]; Jul. 9, 2001): significantly suppress brown patch; Brown Patch % of plot infected ([6]; Jul. 9, 2001, listed as Comp. 18): 12.0%; Brown Patch % of plot infected ([6]; Jul. 16, 2001): 6.3%; Brown Patch % of plot infected ([6]; Jun. 25, 2001): 14.8%; Turf quality ([7]; Jul. 2, 2001): 4.63; Turf quality ([7]; Jul. 9, 2001): 5.50; Turf quality ([7]; Jun. 25, 2001): 4.63; Dollar Spot # of spots per plot ([8]; Jul. 2, 2001): 20.8 spots per plot; Dollar Spot # of spots per plot ([8]; Jul. 9, 2001): 14.3 spots per plot; Dollar Spot # of spots per plot ([8]; Jul. 16, 2001): 1.8 spots per plot; Dollar Spot # of spots per plot ([8]; Jun. 25, 2001): 16.8 spots per plot
4 | Br.Br.C=C(C)[C@@H]1CC[C@]2(COC(=O)CCC[N+]34CCN(CC3)CC4)CC[C@]3(C)C(CCC4[C@@]5(C)CC[C@H](OC(=O)CCC[N+]67CCN(CC6)CC7)C(C)(C)C5CC[C@]43C)C12 (some centres unmarked) [Compound 25, Lup-20(29)-ene-3,28-bis[(N-(1,4-diazabicyclo[2.2.21]octyl)4-butyrate)]dibromide] | 10 | 2 | 2 | 100 | 5 | MIC [9]: 50 µg/mL
5 | Br.C=C(C)[C@@H]1CC[C@]2(COC(=O)CCC[n+]3ccc(N(C)C)cc3)CC[C@]3(C)C(CCC4[C@@]5(C)CC[C@H](OC(=O)CCC[n+]6ccc(N(C)C)cc6)C(C)(C)C5CC[C@]43C)C12 (some centres unmarked) [Compound 40, Lup-20(29)-ene3,28-bis [N-(4-dimethylaminopyridinium)4-butyrate] dibromide] | 5 | 5 | 5 | 50 | 2 | MIC [9]: 20 µg/mL; MIC [10]: 200 µg/mL; MIC [11]: 200 µg/mL
6 | CCCCCCCCCC[N+](C)(CCCCCCCCCC)CC(=O)O[C@H]1CC[C@@]2(C)C(CC[C@]3(C)C2CC[C@@H]2C4[C@H]5OC[C@@]4(CCC5(C)C)CC[C@]23C)C1(C)C.[Cl-] (stereo partly drawn) [Compound 80, 3β-[(N-methyl-N,N-didecyl)aminoacetyloxy]-19β,28-epoxy-18α-oleanan chloride] |  |  |  |  |  | effectiveness against dollar spot [12]: particularly effective
7 | C=C(C)[C@@H]1CC[C@]2(CO)CC[C@]3(C)[C@H](CC[C@@H]4[C@@]5(C)CC[C@H](O)C(C)(C)[C@@H]5CC[C@]43C)[C@@H]12 [betulin] |  |  |  |  |  | solubility in water [13]: about 0.15 mg/l
